The values below come from patent US9512083B2, “Histone deacetylase 6 selective inhibitors for the treatment of bone disease” (The General Hospital Corporation, priority 2012, dated 2016).

“Also recorded” adds a separate entry of the source.

Data set [1] has as its system ac-α-tubulin. The data set can be described thus: Immunohistochemistry of ac-α-tubulin in CD138+ MM patient cells. In kind it is cell-based, human. Particulars: treated vs control.
In data set [2] the test system is acetylation of lysine on Histone H3 and Histone H4. The data set can be described thus: Acetylation of Histone H3 and H4 in MM.1S cells. In kind it is cell-based. Particulars: compared to SAHA.
In data set [3] the test system is acetylated α-tubulin. The data set can be described thus: Acetylation of α-tubulin in MM.1S cells. In kind it is cell-based. The settings on record: increasing doses, 18 hours.
Data set [4] relates to osteoblasts (OBLs) differentiated from BMSCs derived from MM patients. The data set can be described thus: Alkaline phosphatase (ALP) activity assay of osteoblasts. In kind it is cell-based, human. Particulars: Compound A 1 μM and/or bortezomib 2.5 nM, 10-14 and 21 days. As for the experimental part:
Following the AlamarBlue cell viability assay, the wells were then washed twice with PBS fixed for 5 minutes and washed again with distilled water and Alkaline Phosphatase Yellow (pNPP) Liquid Substrate System for ELISA (sigma-aldrich) was added to the wells. The plates were read at OD of 405 nm after 5 minutes of incubation.
(FIG. 1B ALP after 14 days of differentiation in BMSC derived from patient 1, FIG. 1D ALP after 21 days of differentiation in BMSC derived from the same patient, FIG. 2B ALP after 14 days of differentiation in BMSC derived from patient 2, FIG. 2D ALP after 21 days of differentiation in BMSC derived from patient 2, FIG. 3B ALP after 10 days of differentiation in BMSC derived from patient 3).

Data set [5] has as its system osteoclasts (OCLs) differentiated from PBMCs from MM patients. The data set can be described thus: Osteoclastogenesis, TRAP staining. In kind it is cell-based, human.
Data set [6] relates to acetyl-Histone H3. The data set can be described thus: Immunohistochemistry of acetyl-Histone H3 in CD138+ MM patient cells. In kind it is cell-based, human. The settings on record: treated vs control.
For data set [7], the system named is ac-α-tubulin. The data set is described as follows: Western blot of ac-α-tubulin in CD138+ MM patient cells. In kind it is cell-based, human. Particulars: 2 μM, 4 hours.
Data set [8] has as its target T1, Sirtuin 1 (Homo sapiens, UniProt Q96EB6).
T1 sequence (Q96EB6 1-747): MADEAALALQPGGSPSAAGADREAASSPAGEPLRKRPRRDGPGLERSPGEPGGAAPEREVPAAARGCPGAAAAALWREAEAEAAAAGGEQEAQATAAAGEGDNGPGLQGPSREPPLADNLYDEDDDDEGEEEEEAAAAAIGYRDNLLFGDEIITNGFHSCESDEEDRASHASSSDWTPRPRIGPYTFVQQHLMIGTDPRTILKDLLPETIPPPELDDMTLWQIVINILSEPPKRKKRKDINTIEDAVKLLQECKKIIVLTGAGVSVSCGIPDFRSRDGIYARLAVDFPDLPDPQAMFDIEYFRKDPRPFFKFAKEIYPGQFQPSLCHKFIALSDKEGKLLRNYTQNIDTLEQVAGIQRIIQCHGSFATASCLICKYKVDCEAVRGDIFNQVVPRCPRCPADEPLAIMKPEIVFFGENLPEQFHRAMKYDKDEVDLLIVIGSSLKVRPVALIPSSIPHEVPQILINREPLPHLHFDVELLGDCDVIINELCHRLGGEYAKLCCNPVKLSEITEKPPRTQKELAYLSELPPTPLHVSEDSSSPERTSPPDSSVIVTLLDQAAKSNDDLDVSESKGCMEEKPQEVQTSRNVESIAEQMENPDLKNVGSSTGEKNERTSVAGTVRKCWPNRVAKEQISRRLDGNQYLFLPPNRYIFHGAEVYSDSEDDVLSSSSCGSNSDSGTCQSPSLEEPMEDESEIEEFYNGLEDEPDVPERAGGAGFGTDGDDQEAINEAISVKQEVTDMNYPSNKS
The data set is described as follows: HDAC enzyme assay, Sirtuin 1. In kind it is biochemical.

The target of data set [9] is T2, Sirtuin 2 (Homo sapiens, UniProt Q8IXJ6).
T2 sequence (Q8IXJ6 1-389): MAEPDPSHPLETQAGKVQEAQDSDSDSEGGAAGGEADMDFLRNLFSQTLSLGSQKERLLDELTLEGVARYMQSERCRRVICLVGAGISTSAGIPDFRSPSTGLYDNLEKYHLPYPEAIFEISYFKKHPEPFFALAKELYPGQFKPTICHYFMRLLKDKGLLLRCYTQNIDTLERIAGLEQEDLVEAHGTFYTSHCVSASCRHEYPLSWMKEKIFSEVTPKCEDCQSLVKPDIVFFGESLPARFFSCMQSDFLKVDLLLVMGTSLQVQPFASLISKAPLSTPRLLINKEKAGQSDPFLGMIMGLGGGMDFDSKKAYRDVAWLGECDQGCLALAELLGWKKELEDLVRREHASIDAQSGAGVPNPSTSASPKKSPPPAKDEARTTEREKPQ
The data set is described as follows: HDAC enzyme assay, Sirtuin 2. In kind it is biochemical.

In data set [10] the test system is pERK, pAkt, c-fos in OCLs. The data set is described as follows: Immunoblot of signaling pathway in OCLs. In kind it is cell-based, human. Particulars: OCLs differentiated 10 days, treated with Compound A and or bortezomib 24 hours. The source says: Samples were then subjected to sodium dodecyl sulfate-polyacrylamide gel electrophoresis, transferred to PVDF membrane, and immunoblotted with antibodies against pAkt, Akt, and c-fos (Cell Signaling Technology, Beverly, Mass.) or phosphorylated extracellular signal-regulated kinase (pERK). Antigen-antibody complexes were detected by enhanced chemiluminescence (Amersham, Arlington Heights, Ill.). The membrane was stripped and reprobed with antitubulin antibody to ensure equal protein loading. Films were scanned and densitometric analysis performed.
For orientation: Immunoblotting shows a protein as a band on a membrane.

The subject of data set [11] is osteoclasts differentiated from MM patient bone marrow. The data set can be described thus: PIT formation assay (bone resorption). In kind it is cell-based, human. The settings on record: Compound A 1 μM and/or bortezomib 2.5 nM, 7 days. As for the experimental part: OC activity was assayed by bone resorption enumerating resorption pits. Briefly, mononuclear cells (1.8×10^6 cell/well) from MM patient bone marrow were cultured in a 24-well plate coated with a synthetic carbonate apatite (CaP) (Cosmo Bio Co., Ltd, Tokio, Japan) and stimulated with RANKL (25 ng/ml) and M-CSF (25 ng/ml). […] On day 7 the conditioned medium was removed from each well and the wells were treated with 5% sodium hypochlorite for five minutes. After washing and drying, resorption pits were photographed by light microscopy and quantified by Image J software. Each pit area assay was performed at least 3 times with BM from different donors.

Data set [12] concerns osteoblasts (OBLs) differentiated from BMSCs derived from MM patients. The data set is described as follows: Alizarin red staining of calcium deposits in osteoblasts. In kind it is cell-based, human. Particulars: OBLs differentiated in presence of Compound A and/or bortezomib, 23 days. The source says: To evaluate calcium deposition, osteoblasts were washed with PBS and fixed after 23 days of treatment and assayed by alizarin red staining (Alizarin red solution, Millipore) that specifically stains mineralization area. The mineralization areas were visualized using Nikon Labophot-2 microscope with 10×/0.25 lens equipped with SPOT-insight QE camera.
The results shown in FIG. 4A “CTR alpha-mem” represent the BMSCs that have not been differentiated in OBL. The results shown in FIG. 4B “CRT OBL medium” represent the OBL without any treatment.

Data set [13] has the same test system. The data set can be described thus: AlamarBlue viability assay of osteoblasts. The settings on record: Compound A 1 μM and/or bortezomib 2.5 nM, 10-14 and 21 days. In kind it is cell-based, human. As for the experimental part:
Alamarblue was added to the wells to a final concentration of 10% alamar blue and the plates were incubated at […] and 5% CO2 for 1 to 4 hours. The plates were read at absorbance (OD) of 530 nm and 600 nm. The delta OD was recorded and the date were plotted as percentage of control.
The control (ctr) represents the OBL without any treatment. Cell viability was assessed by Alamarblue assay (a redox indicator that yields a colorimetric change and a fluorescent signal in a response to a metabolic activity) (Invitrogen, Carlsbad, Calif.). […] (FIG. 1A alarm blue after 14 days of differentiation in BMSC derived from patient 1, FIG. 1C alarm blue after 21 days of differentiation in BMSC derived from the same patient, FIG. 2A alarm blue after 14 days of differentiation in BMSC derived from patient 2, FIG. 2C alarm blue after 21 days of differentiation in BMSC derived from patient 2, FIG. 3A alarm blue after 10 days of differentiation in BMSC derived from patient 3).
A general note: Alamar Blue is a resazurin reagent that responds to reducing activity.

The IC50 is the concentration that gives 50% inhibition. Read a low IC50 as inhibition by little substance. Turning to `O=C(CCCCCCNC(=O)c1cnc(N(c2ccccc2)c2ccccc2)nc1)NO` [Compound A, 2-(diphenylamino)-N-(7-(hydroxyamino)-7-oxoheptyl)pyrimidine-5-carboxamide], the “ac-α-tubulin, immunohistochemistry (IHC)” value in data set [1] is reported as “significant increase of ac-α-tubulin was observed in treated compared to control cells”. In [2], the “acetylation of lysine on Histone H3 and Histone H4” value is “less potent acetylation of lysine on Histone H3 and Histone H4 compared to SAHA”. Further, the “acetylated α-tubulin” value in data set [3] was “dose dependent significant increase in the acetylated α-tubulin was observed even in the presence of low doses (0.04 μM)”. Further, the “OBLs function (alkaline phosphatase (ALP) activity)” value in [4] was “increases OBLs function; also recorded: increases the alkaline phosphate activity”. Also, the “number of OCLs (multinucleated TRAP-positive cells) per well” value in data set [5] (compared with bortezomib or untreated control wells, 7 and 14 days) is given as “significantly decreases the number of OCLs; also recorded: inhibits osteoclastogenesis”. In addition, in data set [5] (days 7 and 14 of osteoclast differentiation), the “number of OCLs (multinucleated TRAP-positive cells) per well, dose dependence” value is reported as “decreases the number of OCLs (multinucleated TRAP-positive cells) per well in a dose dependent manner; also recorded: inhibits osteoclastogenesis in a dose-dependent manner”. Besides, the “acetyl-Histone H3, immunohistochemistry (IHC)” value in data set [6] was “without any significant increase in acetyl-Histone H3”. Also, the “ac-α-tubulin, Western blot” value in data set [7] was “significant increase of ac-α-tubulin in treated compared to control cells”. Also, the IC50 in data set [8] (Sirtuin 1) is over 10 µM; in [8] (sirtuin 1, text (minimal activity)), over 1 µM; in [9] (Sirtuin 2), over 10 µM; in data set [9] (sirtuin 2, text (minimal activity)) it was over 1 µM. In addition, the “pERK, pAkt and c-fos expression (immunoblot)” value in data set [10] is “downregulation of pERK, pEKT and cFOS expression”. Further, the “PIT formation (resorption pits)” value in data set [11] was “significantly arrested PIT formation”. Besides, the “calcium deposits (Alizarin red staining)” value in data set [12] was “increases calcium deposits in OBL cells”. Also, in data set [13], the “viability of OBLs (AlamarBlue)” value is given as “does not induce cytotoxicity on OBL cells; also recorded: does not affect the viability of osteoblasts (OBLs)”.
